The results in this text go back to US20260217698A1 (BEYANG THERAPEUTICS CO., LTD., priority 2022, published 2026).

One may read the IC50 as the concentration needed to halve the response being measured.

Structures are written as SMILES. Bounds are passed on as bounds.

For one data set, the target named is VEGFR2 (Homo sapiens, UniProt P35968). Kind of data set: Kinase inhibition, Mobility Shift Assay/IMAP, VEGFR2. Type of data set: biochemical. Details: purchased Carna 08-191. An excerpt:
(§1) This assay directly monitored the ability of compounds to inhibit kinase phosphorylation by measuring non-phosphorylated and phosphorylated substrates in kinase reactions by using Mobility Shift Assays/IMAP™ analysis.
(§2) Read the conversion ratio data on CaliperEZ Reader II. Convert conversion rates into inhibition ratio data.
(§3) “Min” indicates the readout of the control well without the addition of enzymes; and “Max” indicates the readout of the control well with the addition of DMSO Fit IC50 values with XL Fit excel add-in version […].
(§4) X indicates the log value of compound concentration, and Y indicates the inhibition ratio (% inhibition).

The target of the next data set is T1, EGFR (Homo sapiens, UniProt P00533).
T1 construct: purchased Carna 08-115
T1 sequence (P00533 669-1210 limits assumed): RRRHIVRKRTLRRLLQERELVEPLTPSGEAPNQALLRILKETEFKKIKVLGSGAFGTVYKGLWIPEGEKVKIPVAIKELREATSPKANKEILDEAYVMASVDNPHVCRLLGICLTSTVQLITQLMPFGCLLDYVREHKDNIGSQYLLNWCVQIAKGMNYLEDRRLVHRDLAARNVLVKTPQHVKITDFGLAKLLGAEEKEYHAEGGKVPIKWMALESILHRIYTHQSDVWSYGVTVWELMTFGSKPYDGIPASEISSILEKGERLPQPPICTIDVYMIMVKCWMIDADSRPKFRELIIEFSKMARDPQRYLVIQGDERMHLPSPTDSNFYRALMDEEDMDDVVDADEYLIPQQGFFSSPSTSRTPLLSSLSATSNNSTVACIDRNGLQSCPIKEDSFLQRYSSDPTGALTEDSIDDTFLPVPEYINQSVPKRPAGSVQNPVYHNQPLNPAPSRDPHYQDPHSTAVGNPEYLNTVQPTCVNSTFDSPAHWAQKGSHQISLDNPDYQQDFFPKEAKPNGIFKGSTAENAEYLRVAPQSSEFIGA
Kind of data set: Kinase inhibition, Mobility Shift Assay/IMAP, EGFR. Type of data set: biochemical.
From the text: as §1, §2, §3, §4

The next data set has as its system melanin. Kind of data set: Binding capacity of compounds to melanin. Type of data set: in vitro ADME, cuttlefish (Sepia officinalis). The note with it: cuttlefish (Sepia officinalis), melanin suspension (1 mg/mL); 1 mg/mL melanin in PBS pH 7.4, 2 μM compound, 2 h at 37° C.; read-out: Fu % (percentage of free drug). An excerpt: Pigmented eye tissues contain melanin in intracellular melanosomes. Drugs bind to melanin to varying degrees, ranging from non-binding to extensive binding. Therefore, melanin binding is an important feature that affects drug delivery and biodistribution in the eye. The binding capacity of the compound to the melanin must be considered in the development of ophthalmic drugs.
Melanin was derived from the melanin of cuttlefish (Sepia officinalis) and was commercially available from Sigma Aldrich (St Louis, MO).
First, prepare 1 mg/mL melanin suspension with PBS (pH 7.4). As a washing step for the matrix, centrifuge the suspended particles for 5 min at 3000 rpm. Resuspend the resulting particles in a fresh PBS buffer, heat to 37° C. over continuous shaking and incubate it for 1 h. Accurately pipette 2 μL of the test stock solution (0.1 mM) into 98 μL of melanin suspension (1 mg/mL) to achieve a final incubation concentration of 2 μM. Similarly, accurately pipette 2 μL of the stock solution (0.1 mM) to 98 μL of PBS buffer (containing 0.1% BSA) as a blank control sample. Incubate the samples in a shaker (80-90 rpm) for 2 h at 37° C. Then, centrifuge the samples at room temperature. Pipette 50 μL of the supernatant and add 50 μL of precipitant (containing an internal standard). After protein precipitation of all the above samples, centrifuge the samples to collect the supernatants, dilute the supernatants with water (if necessary) and inject them for analysis. At the same time, measure the positive controls, including the high-binding compounds Sunitinib and chloroquine and the low-binding compound celecoxib. Establish an LC-MS/MS method for determining compound concentrations, and calibrate the peak area ratio of analyte/internal standard (Analyte/AIS) in the measured sample by the dilution factor to take it as an alternative concentration for the sample for data processing. The binding rate (Fb) of a compound in melanin was calculated as: […]
Ctest was the concentration of the compound in the melanin-incubated sample or the peak area ratio of the test compound to the internal standard. Ccontrol was the concentration of the compound in the blank control sample or the peak area ratio of the test compound to the internal standard. […]

Sequence of VEGFR2 (P35968 790-1356 limits assumed): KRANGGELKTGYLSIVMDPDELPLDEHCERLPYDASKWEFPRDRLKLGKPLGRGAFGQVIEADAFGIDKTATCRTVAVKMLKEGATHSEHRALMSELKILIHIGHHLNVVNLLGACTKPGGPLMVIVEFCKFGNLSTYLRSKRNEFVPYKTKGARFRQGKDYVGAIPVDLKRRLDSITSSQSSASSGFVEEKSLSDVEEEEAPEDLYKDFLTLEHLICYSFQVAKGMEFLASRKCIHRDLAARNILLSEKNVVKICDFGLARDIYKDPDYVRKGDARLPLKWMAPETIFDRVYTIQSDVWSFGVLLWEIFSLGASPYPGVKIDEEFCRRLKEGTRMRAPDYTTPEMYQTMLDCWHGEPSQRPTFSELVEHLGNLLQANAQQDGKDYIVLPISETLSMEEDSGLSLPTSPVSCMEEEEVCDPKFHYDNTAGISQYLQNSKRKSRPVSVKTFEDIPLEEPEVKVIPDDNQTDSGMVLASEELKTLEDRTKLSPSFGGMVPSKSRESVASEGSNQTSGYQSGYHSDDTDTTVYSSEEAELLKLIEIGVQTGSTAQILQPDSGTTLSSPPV

Regarding `COc1cc(COc2nsc(NC(=O)NCCCCN3CC[C@H](F)C3)c2C(N)=O)cc(OC)c1` [Compound T062, (S)-3-((3,5-dimethoxybenzyl)oxy)-5-(3-(4-(3-fluoropyrrolidin-1-yl)butyl)ureido)isothiazole-4-carboxamide], the IC50 at VEGFR2 is 58.8 nM; on EGFR, > 60000 nM. Moreover, the fraction unbound at 2 h, 2 μM in the data set on melanin stood at 0.0195.
Turning to `NC(=O)c1c(OCc2cc(C(=O)NC3CC3)ccc2F)nsc1NC(=O)NCCCN1CC[C@H](O)C1` [Compound T105, 3-[[5-(cyclopropylcarbamoyl)-2-fluoro-phenyl]methoxy]-5-[3-[(3S)-3-hydroxypyrrolidin-1-yl]propylcarbamoylamino]isothiazole-4-carboxamide], the IC50 at VEGFR2 turned out to be 1.6 nM; at EGFR it was 11900 nM. For the same compound, the fraction unbound at 2 h, 2 μM in the data set on melanin was 0.0316.
Turning to `NC(=O)c1c(OCc2cc(C(=O)NC3CC3)ccc2F)nsc1NC(=O)NCCCN1CC[C@@H](O)C1` [Compound T106, 3-[[5-(cyclopropylcarbamoyl)-2-fluoro-phenyl]methoxy]-5-[3-[(3R)-3-hydroxypyrrolidin-1-yl]propylcarbamoylamino]isothiazole-4-carboxamide], the IC50 on VEGFR2 stood at 1.64 nM; on EGFR, 20100 nM. In addition, the fraction unbound at 2 h, 2 μM in the data set with melanin is 0.0172.
`COc1ccc(F)c(COc2nsc(NC(=O)NCCC3CCN(C)CC3)c2C(N)=O)c1F` [Compound T109, 3-[(2,6-difluoro-3-methoxy-phenyl)methoxy]-5-[2-(1-methyl-4-piperidyl)ethylcarbamoylamino]isothiazole-4-carboxamide]: the IC50 on VEGFR2 amounted to 13.8 nM; at EGFR, 7450 nM. In addition, in the data set with melanin, the fraction unbound at 2 h, 2 μM came to 0.0435.
On the same counts, the results for `COc1cc(OC)c(F)c(COc2nsc(NC(=O)NCCCN3CCN(C)CC3)c2C(N)=O)c1F` [Compound T117, 3-[(2,6-difluoro-3,5-dimethoxy-phenyl)methoxy]-5-[3-(4-methylpiperazin-1-yl)propylcarbamoylamino]isothiazole-4-carboxamide] are 2.54 nM, > 60000 nM and 0.0207.
On to `COc1cc(OC)c(F)c(COc2nsc(NC(=O)NCCCCN3CC[C@H](O)C3)c2C(N)=O)c1F` [Compound T136, 3-[(2,6-difluoro-3,5-dimethoxy-phenyl)methoxy]-5-[4-[(3S)-3-hydroxypyrrolidin-1-yl]butylcarbamoylamino]isothiazole-4-carboxamide], for which the values for the IC50 at VEGFR2 and at EGFR were 1.8 nM and > 60000 nM, respectively. Further, in the data set on melanin, the fraction unbound at 2 h, 2 μM came to 0.0285.
With `COc1cc(OC)c(F)c(COc2nsc(NC(=O)NCCCCN3CCCC3)c2C(N)=O)c1F` [Compound T137, 3-[(2,6-difluoro-3,5-dimethoxy-phenyl)methoxy]-5-(4-pyrrolidin-1-ylbutylcarbamoylamino)isothiazole-4-carboxamide], the 50% inhibitory concentration (IC50) on VEGFR2 was 2.1 nM; at EGFR it was > 60000 nM. The fraction unbound at 2 h, 2 μM in the data set on melanin was determined as 0.0446.
Turning to `COc1cc(OC)c(F)c(COc2nsc(NC(=O)NCCCC3CCCN3C)c2C(N)=O)c1F` (stereo not drawn) [Compound T138, 3-[(2,6-difluoro-3,5-dimethoxy-phenyl)methoxy]-5-[3-(1-methylpyrrolidin-2-yl)propylcarbamoylamino]isothiazole-4-carboxamide], the IC50 at VEGFR2 was 2.6 nM; on EGFR, > 60000 nM. Also, the fraction unbound at 2 h, 2 μM with melanin was 0.0398.
On the same counts, the results for `CN1CCN(CCCNC(=O)Nc2snc(OCc3cc(C(=O)NC4CC4)ccc3Cl)c2C(N)=O)CC1` [Compound T140, 3-[[2-chloro-5-(cyclopropylcarbamoyl)phenyl]methoxy]-5-[3-(4-methylpiperazin-1-yl)propylcarbamoylamino]isothiazole-4-carboxamide] are 0.44 nM, 15500 nM and 0.0726.
